Test system: SlG3
Experiment: GGPPS enzyme assay
Type: biochemical, Solanum lycopersicum

Structure (SMILES)	Km (co-substrate 100 µM IPP)	Km (co-substrate 100 µM DMAPP)
CC(C)=CCOP(=O)(O)OP(=O)(O)O [DMAPP]	45.8 ± 6.81 µM	–
C=C(C)CCOP(=O)(O)OP(=O)(O)O [IPP]	–	45.9 ± 4.86 µM
